Test results reported in US11174232B2, “Substituted heterocyclyl derivatives as CDK inhibitors” (Aurigene Discovery Technologies Limited, priority 2015, dated 2021).

Target: CDK7/CycH/MNAT1 (Homo sapiens (Human), UniProt P50613)
Assay: Biochemical Assay for CDK7 (TR-FRET kinase assay)
Settings: 60 min pre-incubation with kinase, 1 mM ATP; for inhibition at 10 µM / % inhibition @ 10 μM: 10 μM compound
How it was run: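 TR-FRET with 5 nM CDK7/CycH/MNAT1, compound pre-incubated 60 min at room temperature, then 100 nM ULight-MBP and 1 mM ATP for 60 min; stopped with EDTA, Eu anti-phospho-MBP read at 665/615 nm. 1% DMSO; IC50 from sigmoidal fit. Time-dependence tested with 20, 60, 180 min pre-incubation.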

Chain of CDK7/CycH/MNAT1 (P50613 whole entry): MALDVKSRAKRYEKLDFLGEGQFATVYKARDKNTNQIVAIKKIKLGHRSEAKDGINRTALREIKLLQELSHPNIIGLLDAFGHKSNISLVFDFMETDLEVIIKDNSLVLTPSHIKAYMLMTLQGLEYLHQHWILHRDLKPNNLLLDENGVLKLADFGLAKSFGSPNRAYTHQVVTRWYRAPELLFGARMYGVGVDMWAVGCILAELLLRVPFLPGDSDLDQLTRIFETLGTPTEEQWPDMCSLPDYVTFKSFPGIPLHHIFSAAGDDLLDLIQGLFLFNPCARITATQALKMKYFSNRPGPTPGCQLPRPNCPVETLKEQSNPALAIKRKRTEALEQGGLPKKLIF
Chain of CDK7/CycH/MNAT1 (P51946 whole entry partner): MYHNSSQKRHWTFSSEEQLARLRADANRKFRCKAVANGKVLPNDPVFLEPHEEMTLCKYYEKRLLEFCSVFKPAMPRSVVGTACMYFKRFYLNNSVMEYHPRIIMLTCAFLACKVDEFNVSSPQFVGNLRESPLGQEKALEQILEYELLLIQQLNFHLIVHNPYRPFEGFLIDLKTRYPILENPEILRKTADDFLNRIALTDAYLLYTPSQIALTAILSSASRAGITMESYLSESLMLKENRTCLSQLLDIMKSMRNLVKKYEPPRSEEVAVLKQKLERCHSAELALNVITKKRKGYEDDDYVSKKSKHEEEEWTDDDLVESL
Chain of CDK7/CycH/MNAT1 (P51948 whole entry partner): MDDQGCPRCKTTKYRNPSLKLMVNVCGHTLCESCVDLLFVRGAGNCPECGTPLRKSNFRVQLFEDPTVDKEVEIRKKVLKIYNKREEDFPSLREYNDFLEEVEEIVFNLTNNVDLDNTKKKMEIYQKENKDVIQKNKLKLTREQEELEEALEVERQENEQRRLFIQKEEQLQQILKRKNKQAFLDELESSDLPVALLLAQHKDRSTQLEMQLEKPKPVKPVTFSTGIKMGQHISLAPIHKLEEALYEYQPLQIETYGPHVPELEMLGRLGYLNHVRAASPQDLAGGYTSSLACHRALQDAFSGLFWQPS

SMILES | inhibition at 10 µM [%] | IC50 [µM] | % inhibition @ 10 μM [%]
COCCN(C)C/C=C/C(=O)Nc1ccc(-c2cccc(C(C)C(=O)Nc3cc(C4CC4)[nH]n3)c2)cn1 (stereo not shown) [Compound 68, (E)-N-(5-(3-(1-((5-cyclopropyl-1H-pyrazol-3-yl)amino)-1-oxopropan-2-yl)phenyl)pyridin-2-yl)-4-((2-methoxyethyl)(methyl)amino)but-2-enamide] | 95 | < 0.025 | –
CC(C(=O)Nc1cc(C2CC2)[nH]n1)c1cccc(-c2ccc(NC(=O)/C=C/CN3CCCC3)nc2)c1 (single isomer, unassigned) [Compound 54, (E)-N-(5-(3-(1-((5-cyclopropyl-1H-pyrazol-3-yl)amino)-1-oxopropan-2-yl)-phenyl)pyridin-2-yl)-4-(pyrrolidin-1-yl)but-2-enamide] | – | < 0.025 | 78
CC(C(=O)Nc1cc(C2CC2)[nH]n1)c1cccc(-c2ccc(NC(=O)/C=C/CN3CCCC(F)C3)nc2)c1 (stereo not shown) [Compound 57, (E)-N-(5-(3-(1-((5-cyclopropyl-1H-pyrazol-3-yl)amino)-1-oxopropan-2-yl)phenyl)pyridin-2-yl)-4-(3-fluoropiperidin-1-yl)but-2-enamide] | 98 | < 0.025 | –
CC(C(=O)Nc1cc(C2CC2)[nH]n1)c1cccc(-c2ccc(NC(=O)/C=C/CN3CCCC3)nc2)c1 (stereo not shown) [Compound 52, (E)-N-(5-(3-(1-((5-cyclopropyl-1H-pyrazol-3-yl)amino)-1-oxopropan-2-yl)phenyl)pyridin-2-yl)-4-(pyrrolidin-1-yl)but-2-enamide] | 91 | < 0.025 | –
C=CC(=O)Nc1ccc(-c2cccc(C(C)C(=O)Nc3n[nH]c4ccccc34)c2)cc1 (stereo not shown) [Compound 90, N-(3′-(1-((1H-indazol-3-yl)amino)-1-oxopropan-2-yl)-[1,1′-biphenyl]-4-yl)acrylamide] | 83 | > 0.1 | –
CC(C(=O)Nc1cc(C2CC2)[nH]n1)c1cccc(-c2ccc(NC(=O)/C=C/CN3CC[C@H](F)C3)nc2)c1 (single isomer, unassigned) [Compound 47] | 91 | < 0.025 | –
COC[C@@H]1C[C@H](F)CN1C/C=C/C(=O)Nc1ccc(-c2cccc(C(C)C(=O)Nc3cc(C4CC4)[nH]n3)c2)cn1 (stereo partly drawn) [Compound 77, (E)-N-(5-(3-(1-((5-cyclopropyl-1H-pyrazol-3-yl)amino)-1-oxopropan-2-yl)phenyl)pyridin-2-yl)-4-((2S,4S)-4-fluoro-2-(methoxymethyl)pyrrolidin-1-yl)but-2-enamide] | 98 | 0.025 to 0.1 | –
CC(C(=O)Nc1cc(C2CC2)[nH]n1)c1cccc(-c2ccc(NC(=O)/C=C/CN3CC[C@@H](F)C3)nc2)c1 (single isomer, unassigned) [Compound 50] | 94 | < 0.025 | –
CC(C(=O)Nc1cc(C2CC2)[nH]n1)c1cccc(-c2ccc(NC(=O)/C=C/CN3CCCCC3)nc2)c1 (stereo not shown) [Compound 40, (E)-N-(5-(3-(1-((5-cyclopropyl-1H-pyrazol-3-yl)amino)-1-oxopropan-2-yl)phenyl)pyridin-2-yl)-4-(piperidin-1-yl)but-2-enamide] | 100 | < 0.025 | –

Second part, the compound after the results:

inhibition at 10 µM [%] | IC50 [µM] | % inhibition @ 10 μM [%] | SMILES
67 | > 0.1 | – | CC(C(=O)Nc1cc(C2CC2)[nH]n1)c1cccc(-c2ccc(NC/C=C/C(=O)N(C)C)cn2)c1 (stereo not shown) [Compound 37, (E)-4-((6-(3-(1-((5-cyclopropyl-1H-pyrazol-3-yl)amino)-1-oxopropan-2-yl)phenyl)pyridin-3-yl)amino)-N,N-dimethylbut-2-enamide]
89 | > 0.1 | – | C=CC(=O)Nc1ccc(-c2cccc(C(C)C(=O)Nc3cc(C4CC4)[nH]n3)c2)cn1 (single isomer, unassigned) [Compound 21, N-(5-(3-(1-((5-cyclopropyl-1H-pyrazol-3-yl)amino)-1-oxopropan-2-yl)phenyl)pyridin-2-yl)acrylamide]
98 | < 0.025 | – | CC(C(=O)Nc1cc(C2CC2)[nH]n1)c1cccc(-c2ccc(NC(=O)/C=C/CN(C)C)nc2)c1 (stereo not shown) [Compound 42, (E)-N-(5-(3-(1-((5-cyclopropyl-1H-pyrazol-3-yl)amino)-1-oxopropan-2-yl)phenyl)pyridin-2-yl)-4-(dimethylamino)but-2-enamide]
88 | > 0.1 | – | C=CC(=O)Nc1ccc(-c2cccc(C(C)C(=O)Nc3cc(C4CC4)[nH]n3)c2)cc1C (stereo not shown) [Compound 66, N-(3′-(1-((5-cyclopropyl-1H-pyrazol-3-yl)amino)-1-oxopropan-2-yl)-3-methyl-[1,1′-biphenyl]-4-yl)acrylamide]
97 | 0.025 to 0.1 | – | C=CC(=O)Nc1ccc(-c2cccc(C(C(=O)Nc3cc(C4CC4)[nH]n3)C(C)C)c2)cc1F (stereo not shown) [Compound 25, 2-(4′-acrylamido-3′-fluoro-[1,1′-biphenyl]-3-yl)-N-(5-cyclopropyl-1H-pyrazol-3-yl)-3-methylbutanamide]
– | < 0.025 | 97 | C=CC(=O)Nc1ccc(-c2cccc(C(C)C(=O)Nc3cc(C4CC4)[nH]n3)c2)cn1 (single isomer, unassigned) [Compound 22, N-(5-(3-(1-((5-cyclopropyl-1H-pyrazol-3-yl)amino)-1-oxopropan-2-yl)phenyl)pyridin-2-yl)acrylamide]
80 | > 0.1 | – | CC(C(=O)Nc1cc(C2CC2)[nH]n1)c1cc(-c2ccc(NC(=O)/C=C/CN(C)C)cc2)ccc1F (stereo not shown) [Compound 5, (E)-N-(3′-(1-((5-cyclopropyl-1H-pyrazol-3-yl)amino)-1-oxopropan-2-yl)-4′-fluoro-[1,1′-biphenyl]-4-yl)-4-(dimethylamino)but-2-enamide]
97 | < 0.025 | – | CC(C(=O)Nc1cc(C2CC2)[nH]n1)c1cccc(-c2ccc3c(c2)CCN3C(=O)/C=C/CN(C)C)c1 (stereo not shown) [Compound 29, (E)-N-(5-cyclopropyl-1H-pyrazol-3-yl)-2-(3-(1-(4-(dimethylamino)but-2-enoyl)indolin-5-yl)phenyl)propanamide]
